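Compound exposure: 48 hours, 5 concentrations, 96-well plates. GI50 marks 50% less growth. TGI marks complete inhibition of growth.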
Assays:
Test in all cases: growth of human tumour cells (NCI), 48 h
786-0 renal = test system: 786-0 renal
A498 renal = test system: A498 renal
A549 NSCLC = test system: A549 NSCLC
ACHN renal = test system: ACHN renal
BT-549 breast = test system: BT-549 breast
CAKI-1 renal = test system: CAKI-1 renal
CCRF-CEM leukemia = test system: CCRF-CEM leukemia
COLO 205 colon = test system: COLO 205 colon
DU-145 prostate = test system: DU-145 prostate
EKVX NSCLC = test system: EKVX NSCLC
HCC-2998 colon = test system: HCC-2998 colon
HCT-116 colon = test system: HCT-116 colon
HCT-15 colon = test system: HCT-15 colon
HL-60(TB) leukemia = test system: HL-60(TB) leukemia
HOP-62 NSCLC = test system: HOP-62 NSCLC
HOP-92 NSCLC = test system: HOP-92 NSCLC
HS 578T breast = test system: HS 578T breast
HT29 colon = test system: HT29 colon
IGROV1 ovarian = test system: IGROV1 ovarian
K-562 leukemia = test system: K-562 leukemia
KM12 colon = test system: KM12 colon
LOX IMVI melanoma = test system: LOX IMVI melanoma
M14 melanoma = test system: M14 melanoma
MALME-3M melanoma = test system: MALME-3M melanoma
MCF7 breast = test system: MCF7 breast
MDA-MB-231 breast = test system: MDA-MB-231 breast
MDA-MB-435 = test system: MDA-MB-435
MOLT-4 leukemia = test system: MOLT-4 leukemia
NCI-H226 lung = test system: NCI-H226 lung
NCI-H23 lung = test system: NCI-H23 lung
NCI-H460 lung = test system: NCI-H460 lung
NCI-H522 lung = test system: NCI-H522 lung
NCI/ADR-RES ovarian = test system: NCI/ADR-RES ovarian
OVCAR-3 ovarian = test system: OVCAR-3 ovarian
OVCAR-4 ovarian = test system: OVCAR-4 ovarian
OVCAR-5 ovarian = test system: OVCAR-5 ovarian
OVCAR-8 ovarian = test system: OVCAR-8 ovarian
PC-3 prostate = test system: PC-3 prostate
RPMI-8226 leukemia = test system: RPMI-8226 leukemia
RXF 393 renal = test system: RXF 393 renal
SF-268 CNS = test system: SF-268 CNS
SF-295 CNS = test system: SF-295 CNS
SF-539 CNS = test system: SF-539 CNS
SK-MEL-2 melanoma = test system: SK-MEL-2 melanoma
SK-MEL-28 melanoma = test system: SK-MEL-28 melanoma
SK-MEL-5 melanoma = test system: SK-MEL-5 melanoma
SK-OV-3 ovarian = test system: SK-OV-3 ovarian
SN12C renal = test system: SN12C renal
SNB-19 CNS = test system: SNB-19 CNS
SNB-75 CNS = test system: SNB-75 CNS
SR leukemia = test system: SR leukemia
SW-620 colon = test system: SW-620 colon
T-47D breast = test system: T-47D breast
TK-10 renal = test system: TK-10 renal
U251 CNS = test system: U251 CNS
UACC-257 melanoma = test system: UACC-257 melanoma
UACC-62 melanoma = test system: UACC-62 melanoma
UO-31 renal = test system: UO-31 renal

`COc1ncc(Nc2ncc([C@@H](C)N3CCN(S(C)(=O)=O)CC3)cc2-c2nc(C)nc(N)n2)cc1F` was tested, and the GI50 (786-0 renal) was 19.2 nM, the TGI (786-0 renal) was 2860 nM and the GI50 (A498 renal) was < 10 nM. For the same compound, the TGI (A498 renal) was 30.9 nM, the GI50 (A549 NSCLC) was 186 nM and the TGI (A549 NSCLC) was > 40700 nM. The GI50 (ACHN renal) was 65.1 nM, the TGI (ACHN renal) was > 100000 nM and the GI50 (BT-549 breast) was 21.9 nM. For the same compound, the TGI (BT-549 breast) was 6230 nM, the GI50 (CAKI-1 renal) was 194 nM and the TGI (CAKI-1 renal) was > 100000 nM. For the same compound, the GI50 (CCRF-CEM leukemia) was 145 nM, the TGI (CCRF-CEM leukemia) was > 54100 nM and the GI50 (COLO 205 colon) was 122 nM. For the same compound, the TGI (COLO 205 colon) was 15300 nM, the GI50 (DU-145 prostate) was 183 nM and the TGI (DU-145 prostate) was > 100000 nM. It also gave a GI50 (EKVX NSCLC) of 486 nM, a TGI (EKVX NSCLC) of 12600 nM and a GI50 (HCC-2998 colon) of 211 nM. The TGI (HCC-2998 colon) was > 100000 nM, the GI50 (HCT-116 colon) was 1870 nM and the TGI (HCT-116 colon) was > 100000 nM. The GI50 (HCT-15 colon) was 198 nM, the TGI (HCT-15 colon) was > 100000 nM and the GI50 (HL-60(TB) leukemia) was 21.4 nM. For the same compound, the TGI (HL-60(TB) leukemia) was > 57300 nM, the GI50 (HOP-62 NSCLC) was 192 nM and the TGI (HOP-62 NSCLC) was 75100 nM. The GI50 (HOP-92 NSCLC) was < 10 nM, the TGI (HOP-92 NSCLC) was 1190 nM and the GI50 (HS 578T breast) was 24.4 nM. For the same compound, the TGI (HS 578T breast) was 3020 nM, the GI50 (HT29 colon) was 35.5 nM and the TGI (HT29 colon) was > 100000 nM. For the same compound, the GI50 (IGROV1 ovarian) was 13.9 nM, the TGI (IGROV1 ovarian) was 82.9 nM and the GI50 (K-562 leukemia) was 14300 nM. For the same compound, the TGI (K-562 leukemia) was > 100000 nM, the GI50 (KM12 colon) was 1330 nM and the TGI (KM12 colon) was > 100000 nM. It also gave a GI50 (LOX IMVI melanoma) of 320 nM, a TGI (LOX IMVI melanoma) of 12500 nM and a GI50 (M14 melanoma) of 2160 nM. The TGI (M14 melanoma) was 38800 nM, the GI50 (MALME-3M melanoma) was 199 nM and the TGI (MALME-3M melanoma) was 10500 nM. The GI50 (MCF7 breast) was 14.7 nM, the TGI (MCF7 breast) was > 100000 nM and the GI50 (MDA-MB-231 breast) was 1590 nM. The TGI (MDA-MB-231 breast) was 13900 nM, the GI50 (MDA-MB-435) was 1150 nM and the TGI (MDA-MB-435) was > 100000 nM. For the same compound, the GI50 (MOLT-4 leukemia) was 40.2 nM, the TGI (MOLT-4 leukemia) was 4130 nM and the GI50 (NCI-H226 lung) was 2590 nM. For the same compound, the TGI (NCI-H226 lung) was > 100000 nM, the GI50 (NCI-H23 lung) was 3860 nM and the TGI (NCI-H23 lung) was > 100000 nM. For the same compound, the GI50 (NCI-H460 lung) was 135 nM, the TGI (NCI-H460 lung) was > 100000 nM and the GI50 (NCI-H522 lung) was 1090 nM. For the same compound, the TGI (NCI-H522 lung) was 59100 nM, the GI50 (NCI/ADR-RES ovarian) was 1610 nM and the TGI (NCI/ADR-RES ovarian) was > 100000 nM. For the same compound, the GI50 (OVCAR-3 ovarian) was 46.8 nM, the TGI (OVCAR-3 ovarian) was 11200 nM and the GI50 (OVCAR-4 ovarian) was 3290 nM. For the same compound, the TGI (OVCAR-4 ovarian) was > 100000 nM, the GI50 (OVCAR-5 ovarian) was < 26.6 nM and the GI50 (OVCAR-8 ovarian) was 2200 nM. For the same compound, the TGI (OVCAR-8 ovarian) was > 100000 nM, the GI50 (PC-3 prostate) was < 13.9 nM and the TGI (PC-3 prostate) was > 100000 nM. For the same compound, the GI50 (RPMI-8226 leukemia) was 7130 nM, the TGI (RPMI-8226 leukemia) was > 100000 nM and the GI50 (RXF 393 renal) was 15.8 nM. For the same compound, the TGI (RXF 393 renal) was 453 nM, the GI50 (SF-268 CNS) was 452 nM and the TGI (SF-268 CNS) was > 100000 nM. It also gave a GI50 (SF-295 CNS) of 28.7 nM, a TGI (SF-295 CNS) of 1850 nM and a GI50 (SF-539 CNS) of 87.6 nM. For the same compound, the TGI (SF-539 CNS) was 1450 nM, the GI50 (SK-MEL-2 melanoma) was 2050 nM and the TGI (SK-MEL-2 melanoma) was > 69600 nM. For the same compound, the GI50 (SK-MEL-28 melanoma) was 53.4 nM, the TGI (SK-MEL-28 melanoma) was > 36600 nM and the GI50 (SK-MEL-5 melanoma) was 2090 nM. It also gave a TGI (SK-MEL-5 melanoma) of 9040 nM, a GI50 (SK-OV-3 ovarian) of 17.1 nM and a TGI (SK-OV-3 ovarian) of 394 nM. The GI50 (SN12C renal) was 68.6 nM, the TGI (SN12C renal) was > 33600 nM and the GI50 (SNB-19 CNS) was 325 nM. The TGI (SNB-19 CNS) was > 66800 nM, the GI50 (SNB-75 CNS) was < 10 nM and the TGI (SNB-75 CNS) was 58.5 nM. The GI50 (SR leukemia) was 4830 nM, the TGI (SR leukemia) was > 61500 nM and the GI50 (SW-620 colon) was 2820 nM. The TGI (SW-620 colon) was > 100000 nM, the GI50 (T-47D breast) was < 10 nM and the TGI (T-47D breast) was 64.8 nM. It also gave a GI50 (TK-10 renal) of 22.2 nM, a TGI (TK-10 renal) of 1220 nM and a GI50 (U251 CNS) of 385 nM. For the same compound, the TGI (U251 CNS) was > 100000 nM, the GI50 (UACC-257 melanoma) was 56.1 nM and the TGI (UACC-257 melanoma) was > 79400 nM. For the same compound, the GI50 (UACC-62 melanoma) was < 11.3 nM, the TGI (UACC-62 melanoma) was 1200 nM and the GI50 (UO-31 renal) was < 11.4 nM. It also gave a TGI (UO-31 renal) of 1890 nM.
